Results published in patent US8865731B2, “Inhibitor of analgesic tolerance” (Kyowa Hakko Kirin Co., Ltd., priority 2008, dated 2014).

Experiments:
[1] = test system: Male ddY mice; assay: Suppressing activity on morphine-induced constipation (number of fecal pellets); format: in vivo; conditions: for number of fecal pellets: FIG. 2
Procedure: Food and water were provided ad libitum. At the time of collection of fecal pellets, food and water were not provided.
Morphine was dissolved in physiological saline at a concentration of 0.3 mg/mL and subcutaneously administered at a dose of 3 mg/kg.
On the day of the test, the tails of the mice were numbered for identification, and the body weight of each mouse was measured. On the basis of the measured body weight, 0.5% MC or Compound (IA) was orally administered. At 30 minutes after administration of 0.5% MC or Compound (IA), physiological saline or morphine was subcutaneously administered, and collection of fecal pellets was started. The fecal pellets were collected at 3 hours after administration of morphine. The amount of feces was evaluated by counting the number of the fecal pellets.

[2] = test system: Male ddY mice; assay: Suppressing activity on morphine analgesic tolerance (hot plate method, response latency); format: in vivo; conditions: for ΔChange (Latency at each time point − Pre value) 0.5 h / ΔChange (Latency at each time point − Pre value) 1 h / ΔChange (Latency at each time point − Pre value) 2 h: single morphine administration group: morphine 6 mg/kg s.c. only on day 7
[3] = test system: Male ddY mice; assay: Suppressing activity on oxycodone analgesic tolerance (hot plate method, response latency); conditions: for Latency (sec) Pre value (before drug administration on last day) / ΔChange (Latency at each time point − Pre value) 0.5 h / ΔChange (Latency at each time point − Pre value) 1 h / ΔChange (Latency at each time point − Pre value) 2 h: Table 6; for Latency (sec) Pre value (before drug administration on last day): day 4; for ΔChange (Latency at each time point − Pre value) 0.5 h: day 4, 0.5 h; for ΔChange (Latency at each time point − Pre value) 1 h: day 4, 1 h; for ΔChange (Latency at each time point − Pre value) 2 h: day 4, 2 h
[4] = test system: adenosine A2A receptor; conditions: known from the literature (Eur. J. Pharmacol., 1994, 267(3), 335 and others); cited from earlier work
[5] = test system: Male ddY mice; assay: Suppressing activity on morphine analgesic tolerance (hot plate method, response latency); format: in vivo; conditions: for ΔChange (Latency at each time point − Pre value) 0.5 h / ΔChange (Latency at each time point − Pre value) 1 h / ΔChange (Latency at each time point − Pre value) 2 h: Table 3; for ΔChange (Latency at each time point − Pre value) 0.5 h: day 7, 0.5 h; for ΔChange (Latency at each time point − Pre value) 1 h: day 7, 1 h; for ΔChange (Latency at each time point − Pre value) 2 h: day 7, 2 h; for development of analgesic tolerance (response latency) / effect on the response latency: Test Example 4; for development of analgesic tolerance (response latency): compound 10 mg/kg p.o. 30 min before each morphine 6 mg/kg s.c.
Procedure: (§1) Food and water were provided ad libitum.
(§2) Morphine was dissolved in physiological saline at a concentration of 0.6 mg/mL and subcutaneously administered at a dose of 6 mg/kg.
as §1, §2
The effect of Compounds (IC) and (ID) on morphine analgesic tolerance was studied. The experiment was performed in the same manner as in Test Example 3. Compounds (IC) and (ID) were used at a dose of 10 mg/kg, respectively.

[6] = Compound (IA) 10 mg/kg p.o. repeatedly administered alone
[7] = repeated combination group: Compound (IA) 10 mg/kg p.o. 30 min before oxycodone 20 mg/kg p.o., 4 days
[8] = compound 10 mg/kg p.o. repeatedly administered alone
[9] = repeated combination group: compound 10 mg/kg p.o. 30 min before each morphine 6 mg/kg s.c., 7 days

In the case of `CN1CC[C@]23c4c5ccc(O)c4O[C@H]2[C@@H](O)C=C[C@H]3[C@H]1C5` [morphine, reference compound], the “number of fecal pellets” value ([1]; morphine 3 mg/kg s.c., pellets collected 3 hours after administration, vs normal group) is reported as “significantly decreased”, the “ΔChange (Latency at each time point − Pre value) 0.5 h” value ([2]; Table 1) is reported as 21.9 ± 1.9 s and the “ΔChange (Latency at each time point − Pre value) 1 h” value ([2]; Table 1) is reported as 11.8 ± 1.1 s. The “ΔChange (Latency at each time point − Pre value) 2 h” value ([2]; Table 1) was 2.9 ± 0.9 s, the “ΔChange (Latency at each time point − Pre value) 0.5 h” value ([2]; Table 2) was 20.2 ± 1.9 ^ sec and the “ΔChange (Latency at each time point − Pre value) 1 h” value ([2]; Table 2) was 6.3 ± 1.7 s. For the same compound, the “ΔChange (Latency at each time point − Pre value) 2 h” value ([2]; Table 2) was 2.3 ± 0.5 s, the “ΔChange (Latency at each time point − Pre value) 0.5 h” value ([2]; Table 3) was 19.5 ± 2.0 s and the “ΔChange (Latency at each time point − Pre value) 1 h” value ([2]; Table 3) was 6.4 ± 1.5 s. The “ΔChange (Latency at each time point − Pre value) 2 h” value ([2]; Table 3) was -0.8 ± 1.5 s, the “ΔChange (Latency at each time point − Pre value) 0.5 h” value ([2]; Table 4) was 16.8 ± 2.7 s and the “ΔChange (Latency at each time point − Pre value) 1 h” value ([2]; Table 4) was 10.4 ± 2.2 s. The “ΔChange (Latency at each time point − Pre value) 2 h” value ([2]; Table 4) was 8.8 ± 0.6 s, the “ΔChange (Latency at each time point − Pre value) 0.5 h” value ([2]; Table 5) was 18.0 ± 2.2 s and the “ΔChange (Latency at each time point − Pre value) 1 h” value ([2]; Table 5) was 6.8 ± 1.3 s. The “ΔChange (Latency at each time point − Pre value) 2 h” value ([2]; Table 5) was 1.9 ± 1.0 s, the “development of analgesic tolerance (response latency)” value (“development of analgesic tolerance” for short) ([2]; Test Example 1, FIG. 1, morphine 6 mg/kg s.c. repeatedly for 7 days vs single morphine administration group) was “the development of analgesic tolerance was observed” and the “development of analgesic tolerance” value ([2]; Test Example 3, morphine 6 mg/kg s.c. repeatedly for 7 days vs single morphine administration group) was “the development of analgesic tolerance was observed”. For the same compound, the “development of analgesic tolerance” value ([2]; Test Example 4, morphine 6 mg/kg s.c. repeatedly for 7 days vs single morphine administration group) was “the development of analgesic tolerance was observed”, the “development of analgesic tolerance” value ([2]; Test Example 5, morphine 6 mg/kg s.c. repeatedly for 7 days vs single morphine administration group) was “the development of analgesic tolerance was observed” and the “development of analgesic tolerance” value ([2]; Test Example 6, morphine 6 mg/kg s.c. repeatedly for 7 days vs single morphine administration group) was “the development of analgesic tolerance was observed”.

In the case of `CCCn1c(=O)c2c(nc(/C=C/c3ccc(OC)c(OC)c3)n2C)n(CCC)c1=O` [Compound (IA)], the “number of fecal pellets” value ([1]; Compound (IA) 10 mg/kg p.o. 30 min before morphine 3 mg/kg s.c., 3 hours, vs morphine administration group) is reported as “significantly increased”, the diarrhea ([1]; combination: Compound (IA) 10 mg/kg p.o. and morphine 3 mg/kg s.c.) is reported as “diarrhea was not induced” and the diarrhea ([1]; only Compound (IA) 10 mg/kg p.o. administered) is reported as “diarrhea was not induced”. For the same compound, the “Latency (sec) Pre value (before drug administration on last day)” value [3, 6] was 11.9 ± 1.2 s, the “ΔChange (Latency at each time point − Pre value) 0.5 h” value [3, 6] was -0.2 ± 1.7 s and the “ΔChange (Latency at each time point − Pre value) 1 h” value [3, 6] was -0.4 ± 2.2 s. For the same compound, the “ΔChange (Latency at each time point − Pre value) 2 h” value [3, 6] was -0.1 ± 2.2 s, the “Latency (sec) Pre value (before drug administration on last day)” value [3, 7] was 11.9 ± 0.7 s and the “ΔChange (Latency at each time point − Pre value) 0.5 h” value [3, 7] was 13.5 ± 2.6 s. The “ΔChange (Latency at each time point − Pre value) 1 h” value [3, 7] was 6.0 ± 1.6 s, the “ΔChange (Latency at each time point − Pre value) 2 h” value [3, 7] was 2.2 ± 1.6 s and the “development of analgesic tolerance” value ([3]; Test Example 7, Compound (IA) 10 mg/kg p.o. 30 min before oxycodone 20 mg/kg p.o., 4 days) was “the development of analgesic tolerance was prevented”. The “effect on the response latency” value ([3]; Test Example 7, Compound (IA) 10 mg/kg p.o. repeatedly administered alone) was “the effect on the response latency was not observed”, the “adenosine A2A receptor antagonistic activity” value [4] was “potent and selective” and the “development of analgesic tolerance” value ([2]; Test Example 1, FIG. 1, Compound (IA) 10 mg/kg p.o. 30 min before morphine 6 mg/kg s.c., repeated 7 days) was “the development of analgesic tolerance was prevented”. The “effect on the response latency” value ([2]; Test Example 1, FIG. 1, Compound (IA) 10 mg/kg p.o. repeatedly administered alone) was “the effect on the response latency was not observed”.

For `COc1ccc(/C=C/c2nc3c(c(=O)n(C)c(=O)n3C)n2C)cc1OC` [Compound (ID)], the “ΔChange (Latency at each time point − Pre value) 0.5 h” value [5, 8] was 2.1 ± 0.8 s, the “ΔChange (Latency at each time point − Pre value) 1 h” value [5, 8] was 2.3 ± 1.3 s and the “ΔChange (Latency at each time point − Pre value) 2 h” value [5, 8] was 2.5 ± 0.9 s. The “ΔChange (Latency at each time point − Pre value) 0.5 h” value [5, 9] was 14.3 ± 1.7 s, the “ΔChange (Latency at each time point − Pre value) 1 h” value [5, 9] was 5.1 ± 1.3 s and the “ΔChange (Latency at each time point − Pre value) 2 h” value [5, 9] was -0.1 ± 1.4 s. The “development of analgesic tolerance” value ([5]; 7 days) was “the development of analgesic tolerance was prevented” and the “effect on the response latency” value [5, 8] was “the effect on the response latency was not observed”.

With `CCn1c(=O)c2c(nc(/C=C/c3cc(OC)c(OC)c(OC)c3)n2C)n(CC)c1=O` [Compound (IC)] the “ΔChange (Latency at each time point − Pre value) 0.5 h” value [5, 8] was 1.0 ± 0.7 s, the “ΔChange (Latency at each time point − Pre value) 1 h” value [5, 8] was 3.3 ± 1.2 s and the “ΔChange (Latency at each time point − Pre value) 2 h” value [5, 8] was 1.7 ± 0.7 s. The “ΔChange (Latency at each time point − Pre value) 0.5 h” value [5, 9] was 16.0 ± 1.8 s, the “ΔChange (Latency at each time point − Pre value) 1 h” value [5, 9] was 5.1 ± 1.7 s and the “ΔChange (Latency at each time point − Pre value) 2 h” value [5, 9] was 0.9 ± 1.3 s. For the same compound, the “development of analgesic tolerance” value ([5]; 7 days) was “the development of analgesic tolerance was prevented” and the “effect on the response latency” value [5, 8] was “the effect on the response latency was not observed”.
